Source: patent US12583849B2, “KCNT1 inhibitors and methods of use” (Praxis Precision Medicines, Inc., priority 2020, dated 2026)

Target: T1, KCNT1 (KNa1.1, Slack) (Homo sapiens, UniProt Q5JUK3)
T1 construct: expressed in transfected cells; host or cells: HEK-TREX (tetracycline-inducible cell line)
T1 sequence (Q5JUK3 1-1230): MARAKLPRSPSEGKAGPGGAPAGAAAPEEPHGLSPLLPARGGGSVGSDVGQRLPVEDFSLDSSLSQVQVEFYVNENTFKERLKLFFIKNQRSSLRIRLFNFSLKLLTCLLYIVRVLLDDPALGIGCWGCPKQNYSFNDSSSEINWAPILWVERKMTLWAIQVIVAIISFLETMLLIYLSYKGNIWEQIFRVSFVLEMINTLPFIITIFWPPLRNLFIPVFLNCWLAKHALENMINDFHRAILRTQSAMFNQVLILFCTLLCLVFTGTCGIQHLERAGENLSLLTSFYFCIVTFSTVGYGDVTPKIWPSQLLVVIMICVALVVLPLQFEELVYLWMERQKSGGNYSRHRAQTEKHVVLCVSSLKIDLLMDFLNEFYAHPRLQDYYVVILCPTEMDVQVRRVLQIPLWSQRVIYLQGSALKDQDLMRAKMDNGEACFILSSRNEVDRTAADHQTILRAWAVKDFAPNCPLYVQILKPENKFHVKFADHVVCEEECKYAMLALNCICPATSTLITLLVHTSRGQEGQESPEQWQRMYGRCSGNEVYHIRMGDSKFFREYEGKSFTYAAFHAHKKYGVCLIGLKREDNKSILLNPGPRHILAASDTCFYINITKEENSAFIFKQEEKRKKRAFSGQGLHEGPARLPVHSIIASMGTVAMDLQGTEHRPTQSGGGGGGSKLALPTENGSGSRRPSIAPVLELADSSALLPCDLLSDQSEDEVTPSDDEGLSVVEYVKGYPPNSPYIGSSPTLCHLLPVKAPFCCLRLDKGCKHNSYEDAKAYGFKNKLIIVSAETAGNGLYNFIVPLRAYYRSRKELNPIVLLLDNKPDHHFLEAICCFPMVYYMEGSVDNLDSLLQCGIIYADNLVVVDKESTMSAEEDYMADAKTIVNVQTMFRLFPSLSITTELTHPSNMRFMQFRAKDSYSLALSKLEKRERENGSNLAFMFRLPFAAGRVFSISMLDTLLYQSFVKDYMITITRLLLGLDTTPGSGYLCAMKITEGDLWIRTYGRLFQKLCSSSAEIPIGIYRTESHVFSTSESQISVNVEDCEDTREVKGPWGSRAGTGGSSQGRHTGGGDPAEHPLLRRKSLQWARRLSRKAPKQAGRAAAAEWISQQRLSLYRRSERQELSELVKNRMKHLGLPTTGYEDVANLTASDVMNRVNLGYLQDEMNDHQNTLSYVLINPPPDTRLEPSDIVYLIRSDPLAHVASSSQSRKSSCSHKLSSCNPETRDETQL
Test: KCNT1-WT-Basal Patch Clamp Assay
Format: cell-based
Settings: tetracycline inducible cell line (HEK-TREX); SyncroPatch 384PE automated patch clamp, perforated patch mode, room temperature, step from -80 mV to 0 mV
Procedure, shortened: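 Tetracycline-inducible HEK-TREX cells expressing human KCNT1, recorded by automated perforated patch clamp (10 μM escin) at room temperature, with 4 mM external K+ at pH 7.4. Mean current taken during a 100 ms step from −80 mV to 0 mV, averaged over 3 sweeps. IC50 from Hill fit of % inhibition; otherwise % inhibition at top concentration.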

Compound | IC50 [nM]
C[C@H](NC(=O)C12CC(C)(C1)C2)c1nc(-c2ccnc(C(F)(F)F)c2)no1 [Compound I-72, 3-methyl-N-[(1S)-1-[3-[2-(trifluoromethyl)-4-pyridyl]-1,2,4-oxadiazol-5-yl]ethyl]bicyclo[1.1.1]pentane-1-carboxamide] | 1000 to 20000
COc1cccc(C(=O)N[C@@H](C)c2nc(-c3ccnc(C4CC4)c3)no2)c1 [Compound I-79] | ≤ 1000
C[C@H](NC(=O)c1ccccc1Cl)c1nc(-c2ccnc(C3CC3)c2)no1 [Compound I-80, 2-chloro-N-[(1S)-1-[3-(2-cyclopropyl-4-pyridyl)-1,2,4-oxadiazol-5-yl]ethyl]benzamide] | ≤ 1000
Cc1cccc(C(=O)N[C@@H](C)c2nc(-c3ccnc(C4CC4)c3)no2)c1 [Compound I-81, N-[(1S)-1-[3-(2-cyclopropyl-4-pyridyl)-1,2,4-oxadiazol-5-yl]ethyl]-3-methyl-benzamide] | ≤ 1000
C[C@H](NC(=O)[C@H]1CC[C@@H](C)CC1)c1nc(-c2ccnc(C3CC3)c2)no1 [Compound I-84, (1S,4R)—N—((S)-1-(3-(2-cyclopropylpyridin-4-yl)-1,2,4-oxadiazol-5-yl)ethyl)-4-methylcyclohexane-1-carboxamide] | ≤ 1000
Cc1ccc(C(=O)N[C@@H](C)c2nc(-c3ccnc(C4CC4)c3)no2)cc1 [Compound I-87, (S)—N-(1-(3-(2-cyclopropylpyridin-4-yl)-1,2,4-oxadiazol-5-yl)ethyl)-4-methylbenzamide] | ≤ 1000
C[C@H](NC(=O)c1cccc(F)c1)c1nc(-c2ccnc(C3CC3)c2)no1 [Compound I-89, (S)—N-(1-(3-(2-cyclopropylpyridin-4-yl)-1,2,4-oxadiazol-5-yl)ethyl)-3-fluorobenzamide] | ≤ 1000
C[C@H](NC(=O)c1cccc(C(N)=O)c1)c1nc(-c2ccnc(C3CC3)c2)no1 [Compound I-91, (S)—N-(1-(3-(2-cyclopropylpyridin-4-yl)-1,2,4-oxadiazol-5-yl)ethyl) isophthalamide] | 1000 to 20000

Next, values leading:

IC50 [nM] | Compound
≥ 20000 | CC(=O)N1CCC(C(=O)N[C@@H](C)c2nc(-c3ccnc(C(F)(F)F)c3)no2)CC1 [Compound I-73, 1-acetyl-N-[(1S)-1-[3-[2-(trifluoromethyl)-4-pyridyl]-1,2,4-oxadiazol-5-yl]ethyl]piperidine-4-carboxamide]
≤ 1000 | COc1ccccc1C(=O)N[C@@H](C)c1nc(-c2ccnc(C3CC3)c2)no1 [Compound I-75, N-[(1S)-1-[3-(2-cyclopropyl-4-pyridyl)-1,2,4-oxadiazol-5-yl]ethyl]-2-methoxy-benzamide]
≤ 1000 | C[C@H](NC(=O)C1CC2(CCC2)C1)c1nc(-c2ccnc(C(F)(F)F)c2)no1 [Compound I-76, N-[(1S)-1-[3-[2-(trifluoromethyl)-4-pyridyl]-1,2,4-oxadiazol-5-yl]ethyl]spiro[3.3]heptane-2-carboxamide]
≤ 1000 | C[C@H](NC(=O)C1CCCC12CC2)c1nc(-c2ccnc(C(F)(F)F)c2)no1 (stereo partly drawn) [Compound I-82, N-[(1S)-1-[3-[2-(trifluoromethyl)-4-pyridyl]-1,2,4-oxadiazol-5-yl]ethyl]spiro[2.4]heptane-7-carboxamide]
≤ 1000 | Cc1ccccc1C(=O)N[C@@H](C)c1nc(-c2ccnc(C3CC3)c2)no1 [Compound I-83, N-[(1S)-1-[3-(2-cyclopropyl-4-pyridyl)-1,2,4-oxadiazol-5-yl]ethyl]-2-methyl-benzamide]
≤ 1000 | C[C@H](NC(=O)c1cccc(C#N)c1)c1nc(-c2ccnc(C3CC3)c2)no1 [Compound I-88, (S)-3-cyano-N-(1-(3-(2-cyclopropylpyridin-4-yl)-1,2,4-oxadiazol-5-yl)ethyl)benzamide]
1000 to 20000 | C[C@H](NC(=O)c1cccc(C(=O)N(C)C)c1)c1nc(-c2ccnc(C3CC3)c2)no1 [Compound I-90, (S)—N1-(1-(3-(2-cyclopropylpyridin-4-yl)-1,2,4-oxadiazol-5-yl)ethyl)-N3,N3-dimethylisophthalamide]
